Experimental data published in patent publication US20240116875A1, “RATIONAL DESIGN, OPTIMIZATION, AND BIOLOGICAL EVALUATION OF NOVEL MEK4 INHIBITORS AGAINST PANCREATIC ADENOCARCINOMA” (NORTHWESTERN UNIVERSITY, priority 2022, published 2024).
“Also recorded” adds a separate entry of the source. Where two headings read alike, the source gives them in different places.

Legend:
[1] = molecular target: T1, MEK7 (Homo sapiens, UniProt O14733); test: ADP-Glo kinase activity assay, MEK7; assay type: biochemical
T1 construct: purchased Carna Biosciences
T1 sequence (O14733 1-419): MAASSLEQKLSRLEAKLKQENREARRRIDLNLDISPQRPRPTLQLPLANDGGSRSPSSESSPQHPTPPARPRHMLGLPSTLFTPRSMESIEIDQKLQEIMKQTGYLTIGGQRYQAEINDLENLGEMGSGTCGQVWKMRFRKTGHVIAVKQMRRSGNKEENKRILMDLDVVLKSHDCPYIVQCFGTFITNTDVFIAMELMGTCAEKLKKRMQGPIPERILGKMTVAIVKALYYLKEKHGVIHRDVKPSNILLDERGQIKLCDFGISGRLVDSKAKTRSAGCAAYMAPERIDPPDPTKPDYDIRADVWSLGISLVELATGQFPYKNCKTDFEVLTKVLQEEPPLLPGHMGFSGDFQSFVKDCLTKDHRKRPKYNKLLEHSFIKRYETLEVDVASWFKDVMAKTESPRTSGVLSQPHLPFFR
Description: The compounds were then evaluated both in vitro and in a cellular system. When studying kinase inhibitors, there are a multitude of ways to evaluate selectivity across kinases.
Procedure for a 5 μL Kinase reaction using the ADP-Glo Kinase Assay Kit from Promega. Staurosporine was used as the positive control, and DMSO as the negative control. Activity of recombinant active full-length human MEK4 (Carna Biosciences) was measured using the ADP-Glo assay with recombinant full-length human p38α (MAPK14). Kinase reactions with MEK7 (Carna Biosciences) were done at the same concentration and amounts with recombinant full-length human p38α (MAPK14).
For each well, 4 ng of MEK4 and 600 ng of p38α in Kinase buffer (CST) were used, and 1 μL of this mixture was dispensed per well.
Inhibitor was prepared in a DMSO solution. A dose response dilution was done in a 384-well Echo transfer plate. […] This mixture was allowed to incubate for 30 minutes at room temperature.
Using a Mantis, 1 μL, of an 8 μM ATP solution was added to each well, and the plate was allowed to incubate for another 1 hour at room temperature. […] All experiments were done in triplicate on the plate, and at least in one separate technical duplicate.

[2] = Log D study (BioDuro-Sundia); details: pH of 7.4
[3] = liver microsome stability study (BioDuro-Sundia)
[4] = PAMPA assay (BioDuro-Sundia); assay type: in vitro ADME
[5] = system: Caco-2; test: Caco-2 permeability assay; assay type: in vitro ADME
[6] = system: JNK phosphorylation in HEK293T cells; test: anisomycin-induced JNK phosphorylation, western blotting, HEK293T; assay type: cell-based, human; details: anisomycin 45 minutes then compound 5 hours, increasing doses
Description: The blots are representative of at least three biological replicates.
(§1) We also examined the effects of these inhibitors on JNK phosphorylation and proliferation of two pancreatic cancer cell lines (CD18 and MiaPaCa2).
(§2) Human pancreatic cancer cell lines (CD18/HPAF-II and MiaPaCa2) and HEK293T cells were obtained from American Type Culture Collection. All cell lines were cultured according to the manufacturer's protocol. All media contained 10% Fetal Bovine Serum (FBS) and antibiotics (100 U/mL Penicillin and 100 μg/mL Streptomycin).
(§3) Whole cell extracts of cultured cells were prepared in radioimmunoprecipitation (RIPA) lysis buffer supplemented with phosphatase and protease inhibitors (Calbiochem). Protein concentration was determined by the bicinchoninic acid assay (BCA) (ThermoFisher) and separated by the SDS-PAGE technique. […] Secondary anti-mouse IgG (A4416) and anti-rabbit IgG (A6667) antibodies were purchased from Sigma-Aldrich and used a 1:4000 dilution. Images of blots were acquired on HyBlot ES Autoradiography Film (Thomas Scientific, Swedesboro, NJ, USA) following incubation with SuperSignal West Pico PLUS (ThermoFisher).

[7] = system: JNK phosphorylation in CD18 cells; test: anisomycin-induced JNK phosphorylation, western blotting, CD18; assay type: cell-based, human; details: CD18, anisomycin 45 minutes then compound 5 hours
Description: (§4) HSP90 was used as loading control. The blots are representative of at least three biological replicates.
as §1, §2, §3

[8] = system: JNK phosphorylation in MiaPaCa2 cells; test: anisomycin-induced JNK phosphorylation, western blotting, MiaPaCa2; assay type: cell-based, human; details: MiaPaCa2, anisomycin 45 minutes then compound 5 hours
Description: as §4, §1, §2, §3

[9] = system: HEK293T cells; test: cell proliferation (cell count after 72 hours), HEK293T; assay type: cell-based, human; details: varying doses
Description: After 72 hours, cells were trypsinized, counted, and the cell numbers were normalized against the DMSO treatment. Mean±SD. Graphs are representative of 3 biological replicates. One-way ANOVA; ns, non-significant **, p<0.01 ***, p<0.001.
as §1, §2

[10] = system: CD18 cells; test: cell proliferation (cell count after 72 hours), CD18; assay type: cell-based, human; details: CD18, 72 hours, varying doses, single agent
Description: (§5) After 72 hours, cells were trypsinized, counted, and the cell numbers were normalized against the DMSO treatment. Mean±SD. Graphs are representative of 3 biological replicates.
as §5
(§6) Cell numbers from different treatments were normalized against the DMSO treatment, and CDI is calculated as follows: CDI=AB/(A×B), with AB being the ratio of the combination groups to control group and A or B being the ratio of the single agent group to the DMSO group. Mean±SEM from 3 biological replicates.
as §1, §2

[11] = system: MiaPaCa2 cells; test: cell proliferation (cell count after 72 hours), MiaPaCa2; assay type: cell-based, human; details: MiaPaCa2, 72 hours, varying doses, single agent
Description: as §5, §5, §6, §1, §2

[12] = system: MEK7 expression in HEK293T cells; test: MEK7 expression, western blotting, HEK293T; assay type: cell-based, human; details: anisomycin pretreatment, compound 100 μM, 5 hours
Description: as §4
(§7) We next evaluated the effects of our inhibitors on the phosphorylation activity and expression of MEK1/2, MEK3/6, and MEK7. […] We also evaluated the effects on p42/44 MAPK (ERK1/2), which functions downstream of MEK1/2.
as §3

[13] = system: phospho-p38 MAPK in HEK293T cells; test: p38 MAPK phosphorylation, western blotting, HEK293T; assay type: cell-based, human; details: anisomycin pretreatment, compound 100 μM, 5 hours
Description: as §4, §7, §3

[14] = system: phospho-p42/44 MAPK in HEK293T cells; test: p42/44 MAPK (ERK1/2) phosphorylation, western blotting, HEK293T; assay type: cell-based, human; details: anisomycin pretreatment, compound 100 μM, 5 hours
Description: as §4, §7, §3

[15] = system: phospho-p42/44 MAPK in CD18 cells; test: p42/44 MAPK phosphorylation, western blotting, CD18; assay type: cell-based, human; details: CD18, MEK4 inhibitor 10 μM, 5 hours
Description: (§8) The effects of different treatments on phospho-p42/44 MAPK and total p42/44 MAPK expression levels were determined by western blotting. HSP90 was used as loading control. The blots are representative of at least three biological replicates.
as §3

[16] = system: phospho-p42/44 MAPK in MiaPaCa2 cells; test: p42/44 MAPK phosphorylation, western blotting, MiaPaCa2; assay type: cell-based, human; details: MiaPaCa2, MEK4 inhibitor 10 μM, 5 hours
Description: as §8, §3

[17] = molecular target: CYP 1A2 (Homo sapiens, UniProt P05177)
Sequence of CYP 1A2 (P05177 whole entry): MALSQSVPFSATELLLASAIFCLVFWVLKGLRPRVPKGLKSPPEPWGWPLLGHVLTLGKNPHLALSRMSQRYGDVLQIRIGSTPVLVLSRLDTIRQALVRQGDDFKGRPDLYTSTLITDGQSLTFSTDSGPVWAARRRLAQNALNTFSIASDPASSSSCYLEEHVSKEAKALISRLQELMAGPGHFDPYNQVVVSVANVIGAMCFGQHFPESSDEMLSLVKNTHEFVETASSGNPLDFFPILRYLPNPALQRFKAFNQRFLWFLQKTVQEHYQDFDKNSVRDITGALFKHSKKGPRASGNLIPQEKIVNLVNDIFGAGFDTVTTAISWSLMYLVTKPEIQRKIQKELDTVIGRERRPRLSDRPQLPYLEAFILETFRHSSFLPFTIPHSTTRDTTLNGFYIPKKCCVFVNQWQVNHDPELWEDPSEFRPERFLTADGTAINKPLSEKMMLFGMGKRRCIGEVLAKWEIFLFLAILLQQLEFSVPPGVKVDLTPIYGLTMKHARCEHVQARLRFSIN

[18] = molecular target: CYP 2D6 (Homo sapiens, UniProt P10635); test: CYP inhibition, 2D6
Sequence of CYP 2D6 (P10635 whole entry): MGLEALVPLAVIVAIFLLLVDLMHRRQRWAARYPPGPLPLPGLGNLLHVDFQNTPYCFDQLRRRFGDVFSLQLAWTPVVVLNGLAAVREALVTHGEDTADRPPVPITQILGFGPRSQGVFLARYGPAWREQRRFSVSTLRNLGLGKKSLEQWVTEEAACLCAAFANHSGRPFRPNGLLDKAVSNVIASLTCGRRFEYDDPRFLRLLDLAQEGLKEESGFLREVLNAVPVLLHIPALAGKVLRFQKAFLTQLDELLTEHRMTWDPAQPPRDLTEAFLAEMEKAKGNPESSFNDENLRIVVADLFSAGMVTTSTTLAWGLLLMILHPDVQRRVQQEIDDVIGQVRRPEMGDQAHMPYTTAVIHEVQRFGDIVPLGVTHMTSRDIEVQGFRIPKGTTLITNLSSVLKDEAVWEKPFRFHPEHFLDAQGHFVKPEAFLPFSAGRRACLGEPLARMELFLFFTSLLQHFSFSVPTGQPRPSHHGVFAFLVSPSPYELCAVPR

[19] = molecular target: CYP 2C9 (Homo sapiens, UniProt P11712); test: CYP inhibition, 2C9
Sequence of CYP 2C9 (P11712 whole entry): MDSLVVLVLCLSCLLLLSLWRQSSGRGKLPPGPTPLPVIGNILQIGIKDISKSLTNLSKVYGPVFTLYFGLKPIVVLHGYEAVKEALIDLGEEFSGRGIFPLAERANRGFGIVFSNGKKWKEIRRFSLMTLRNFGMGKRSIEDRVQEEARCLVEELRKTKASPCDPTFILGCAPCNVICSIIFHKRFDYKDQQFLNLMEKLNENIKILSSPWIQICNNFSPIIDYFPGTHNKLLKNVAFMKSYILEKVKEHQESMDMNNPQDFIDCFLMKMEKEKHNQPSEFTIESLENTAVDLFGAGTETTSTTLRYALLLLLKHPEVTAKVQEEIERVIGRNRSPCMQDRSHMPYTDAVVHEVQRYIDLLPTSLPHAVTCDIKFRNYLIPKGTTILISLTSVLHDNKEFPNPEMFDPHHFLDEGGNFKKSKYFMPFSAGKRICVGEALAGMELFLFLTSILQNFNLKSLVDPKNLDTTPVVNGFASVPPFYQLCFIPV

[20] = molecular target: CYP 2C19 (Homo sapiens, UniProt P33261); test: CYP inhibition, 2C19
Sequence of CYP 2C19 (P33261 whole entry, canonical isoform): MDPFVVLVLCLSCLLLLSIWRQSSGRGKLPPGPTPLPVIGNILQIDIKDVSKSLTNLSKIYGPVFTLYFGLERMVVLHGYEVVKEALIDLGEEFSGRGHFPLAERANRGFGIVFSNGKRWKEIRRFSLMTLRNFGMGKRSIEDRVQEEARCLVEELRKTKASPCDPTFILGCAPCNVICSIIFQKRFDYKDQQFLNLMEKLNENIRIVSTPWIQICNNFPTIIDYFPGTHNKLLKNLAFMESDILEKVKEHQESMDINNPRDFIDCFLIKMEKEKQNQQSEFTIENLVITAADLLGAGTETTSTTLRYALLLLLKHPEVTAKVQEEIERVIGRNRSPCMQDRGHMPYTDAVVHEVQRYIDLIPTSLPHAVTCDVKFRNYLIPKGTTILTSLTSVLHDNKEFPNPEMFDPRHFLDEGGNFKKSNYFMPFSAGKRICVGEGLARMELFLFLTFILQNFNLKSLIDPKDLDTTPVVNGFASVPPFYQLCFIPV

[21] = system: CYP isoforms 3A4/5; test: CYP inhibition, 3A4/5
[22] = molecular target: Cot (Homo sapiens, UniProt P41279); details: cited from earlier work
Sequence of Cot (P41279 whole entry): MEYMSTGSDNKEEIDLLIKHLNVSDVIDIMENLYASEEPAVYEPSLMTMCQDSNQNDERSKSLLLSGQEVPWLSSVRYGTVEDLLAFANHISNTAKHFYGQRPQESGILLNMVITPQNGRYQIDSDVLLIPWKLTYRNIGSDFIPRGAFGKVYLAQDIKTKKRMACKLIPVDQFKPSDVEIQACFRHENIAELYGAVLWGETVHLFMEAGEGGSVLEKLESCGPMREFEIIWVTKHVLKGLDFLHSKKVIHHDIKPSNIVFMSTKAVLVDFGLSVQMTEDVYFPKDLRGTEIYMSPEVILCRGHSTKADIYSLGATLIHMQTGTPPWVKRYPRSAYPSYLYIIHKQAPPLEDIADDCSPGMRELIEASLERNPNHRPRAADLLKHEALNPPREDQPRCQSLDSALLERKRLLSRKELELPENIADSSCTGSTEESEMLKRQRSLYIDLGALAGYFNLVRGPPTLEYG

NS(=O)(=O)c1ccc(-c2n[nH]c3cc(F)ccc23)cc1 [Compound 10e, 4-(6-fluoro-1H-indazol-3-yl)benzenesulfonamide] showed an IC50 [1] of 520 ± 670 nM, an IC50 ([1]; headline value per compound, read-out: MEK7 IC50) of 540 nM and an IC50 ([1]; individual experiment, values in brackets, n=3, read-out: MEK7 IC50 of each experiment (IC50±SEM)) of 560 ± 220 nM. For the same compound, the “log D” value [2] was 2.80, the “half-life in the microsome assay” value ([3]; liver microsome) was 1.9 h and the “stability in the microsome assay” value ([3]; microsomes) was “good stability”. For the same compound, the “permeability in the PAMPA assay” value [4] was “performed slightly better”, the Caco-2 permeability [5] was “medium to high permeability” and the “effect on anisomycin-induced JNK phosphorylation” value [6] was “attenuated anisomycin-induced INK phosphorylation in a dose-dependent manner”. The “effect on anisomycin-induced JNK phosphorylation” value [7] was “attenuated anisomycin-induced JNK phosphorylation”, the “effect on anisomycin-induced JNK phosphorylation” value [8] was “attenuated anisomycin-induced JNK phosphorylation” and the cell proliferation [9] was “decreased. HEK293T cell proliferation in a dose-dependent manner”. For the same compound, the cell proliferation [10] was “decreased proliferation; also recorded: antiproliferative properties”, the cell proliferation [11] was “decreased proliferation; also recorded: antiproliferative properties” and the “effect on the expression of MEK7” value [12] was “no effect”. For the same compound, the “effect on anisomycin-induced p38 MAPK phosphorylation” value [13] was “not affected”, the “effect on p42/44 MAPK phosphorylation after anisomycin” value [14] was “reversed the effects of anisomycin” and the “effect on p42/44 MAPK phosphorylation” value [15] was “increased p42/44 MAPK phosphorylation”. For the same compound, the “effect on p42/44 MAPK phosphorylation” value [16] was “did not induce p42/44 MAPK phosphorylation”, the “inhibition of CYP 1A2” value [17] was “inhibited” and the “inhibition of CYP 2D6” value [18] was “avoided inhibiting”. The “inhibition of CYP 2C9” value [19] was “avoided inhibiting”, the “inhibition of CYP 2C19” value [20] was “inhibited” and the “inhibition of CYP isoforms 3A4/5” value [21] was “did not inhibit”.

For O=c1c(-c2ccc(O)c(O)c2)coc2cc(O)ccc12 [THIF, 7,3′,4′-trihydroxyisoflavone], the “Cot activity (literature)” value [22] is given as “inhibits”.
